Legend:
[1] = system: RKO (RKOp27) human colon adenocarcinoma cells; experiment: Alamar Blue cell viability assay, anti-proliferative/cytotoxic activity on proliferating (uninduced) RKOp27 cells; type: cell-based; conditions: RKOp27 subclone without inducer, 72 hours incubation, read-out: IC50 RKO p27 uninduced (proliferating)
Experimental: The anti-proliferative/cytotoxic activity of the compounds described herein, can be tested on subclones of RKO (RKOp27) human colon adenocarcinoma cells (Schmidt et al., Oncogene 19, 2423-2429; 2000) using the Alamar Blue cell viability assay (described in O'Brien et al. Eur J Biochem 267, 5421-5426, 2000). The compounds are dissolved as 20 mM solutions in dimethylsulfoxide (DMSO) and subsequently diluted in semi-logarithmic steps. DMSO dilutions are further diluted 1:100 into Dulbecco's modified Eagle's medium (DMEM) containing 10% fetal calf serum to a final concentration twice as much as the final concentration in the test. RKO subclones are seeded into 96 well flat bottom plates at a density of 4000 cells per well in a volume of 50 μl per well. 24 hours after seeding the 50 μl each of the compound dilutions in DMEM medium are added into each well of the 96 Well plate. Each compound dilution is tested as quadruplicates. Wells containing untreated control cells are filled with 50 μl DMEM medium containing 1% DMSO. The cells are then incubated with the substances for 72 hours at 37° C. in a humidified atmosphere containing 5% carbon dioxide. To determine the viability of the cells, 10 μl of an Alamar Blue solution (Biosource) are added and the fluorescence is measured at an extinction of 544 nm and an emission of 590 nm. For the calculation of the cell viability the emission value from untreated cells is set as 100% viability and the emission rates of treated cells are set in relation to the values of untreated cells. Viabilities are expressed as % values.
The corresponding IC50 values of the compounds for anti-proliferative/cytotoxic activity are determined from the concentration-effect curves.
Representative IC50 values for anti-proliferation/cytotoxicity determined in the mentioned assay follow from the following table A, in which the numbers of the compound correspond to the numbers of the examples.

[2] = system: RKO colon adenocarcinoma cells (RKOp27) arrested by the expression of ectopic p27Kip1; experiment: Alamar Blue cell viability assay on RKOp27 cells arrested by Ponasterone A-induced p27Kip1 expression (cell cycle specific mode of action); type: cell-based; conditions: Homo sapiens, RKOp27 subclone induced with 10 μM Ponasterone A, 72 hours incubation, read-out: IC50 RKO p27 induced (arrested)
Experimental: To determine the cell cycle specific mode of action, subclones of RKO colon adenocarcinoma cells (RKOp27 or RKOp21 as described by Schmidt et al. in Oncogene 19, 2423-2429; 2000) are seeded into 96 well flat bottom plates at a density of 16000 cells per well in a volume of 50 μl per well in DMEM growth medium with 10% FCS containing 10 μM Ponasterone A. 24 hours after seeding the 50 μl each of the compound dilutions in DMEM medium are added into each well of the 96 Well plate. Each compound dilution is tested as quadruplicates. Wells containing untreated control cells are filled with 50 μl DMEM medium containing 1% DMSO. The cells are then incubated with the substances for 72 hours at 37° C. in a humidified atmosphere containing 5% carbon dioxide. To determine the viability of the cells, 10 μl of an Alamar Blue solution (Biosource) are added and the fluorescence was measured at an extinction of 544 nm and an emission of 590 nm. For the calculation of the cell viability the emission value from untreated cells is set as 100% viability and the emission rates of treated cells are set in relation to the values of untreated cells. Viabilities are expressed as % values. Viability is compared of proliferating cells grown in the absence of the inducer Ponasterone A, versus viability of cells arrested by the expression of ectopic p27Kip1 induced by Ponasterone A.

Structure (SMILES)	IC50 [2] [nM]	IC50 [1] [nM]
CCOC(=O)N1CCc2c(sc(NC(=O)CCn3nccc3C)c2C#N)C1 [Example 20, 3-Cyano-2-[3-(5-methyl-pyrazol-1-yl)-propanoylamino]-4,7-dihydro-5H-thieno[2,3-c]pyridine-6-carboxylic acid ethyl ester]	> 100000	300 to 2000
CCOC(=O)N1CCc2c(sc(NC(=O)CCC3CCCO3)c2C#N)C1 (stereo not drawn) [Example 21, 3-Cyano-2-(3-tetrahydro-furan-2-yl-propanoylamino)-4,7-dihydro-5H-thieno[2,3-c]pyridine-6-carboxylic acid ethyl ester]	> 100000	≤ 300
CCOC(=O)N1CCc2c(sc(NC(=O)CCc3cccc4c3OCO4)c2C#N)C1 [Example 32, 2-(3-Benzo[1,3]dioxol-4-yl-propanoylamino)-3-cyano-4,7-dihydro-5H-thieno[2,3-c]pyridine-6-carboxylic acid ethyl ester]	> 100000	≤ 300
CCOC(=O)N1CCc2c(sc(NC(=O)CCc3cccc4c3OC(F)(F)O4)c2C#N)C1 [Example 33, 3-Cyano-2-[3-(2,2-difluoro-benzo[1,3]dioxol-4-yl)-propanoylamino]-4,7-dihydro-5H-thieno[2,3-c]pyridine-6-carboxylic acid ethyl ester]	> 100000	300 to 2000
CCOC(=O)N1CCc2c(sc(NC(=O)CCc3cccc4c3OCCO4)c2C#N)C1 [Example 34, 3-Cyano-2-(3-2,3-dihydro-benzo[1,4]dioxin-5-yl-propanoylamino)-4,7-dihydro-5H-thieno[2,3-c]pyridine-6-carboxylic acid ethyl ester]	> 100000	300 to 2000
CCOC(=O)N1CCc2c(sc(NC(=O)CCc3cncnc3)c2C#N)C1 [Example 35, 3-Cyano-2-(3-pyrimidin-5-yl-propanoylamino)-4,7-dihydro-5H-thieno[2,3-c]pyridine-6-carboxylic acid ethyl ester]	≥ 40000	300 to 2000
CCOC(=O)N1CCc2c(sc(NC(=O)CCc3ccccn3)c2C#N)C1 [Example 36, 3-Cyano-2-(3-pyridin-2-yl-propanoylamino)-4,7-dihydro-5H-thieno[2,3-c]pyridine-6-carboxylic acid ethyl ester]	> 100000	≤ 300
COCCOC(=O)N1CCc2c(sc(NC(=O)CCc3cccnc3)c2C#N)C1 [Example 37, 3-Cyano-2-(3-pyridin-3-yl-propanoylamino)-4,7-dihydro-5H-thieno[2,3-c]pyridine-6-carboxylic acid 2-methoxy-ethyl ester]	≥ 40000	300 to 2000
N#Cc1c(NC(=O)CCc2cccnc2)sc2c1CCN(C(=O)OCc1ccccn1)C2 [Example 38, 3-Cyano-2-(3-pyridin-3-yl-propanoylamino)-4,7-dihydro-5H-thieno[2,3-c]pyridine-6-carboxylic acid pyridin-2-ylmethyl ester]	> 100000	300 to 2000
N#Cc1c(NC(=O)CCc2cccnc2)sc2c1CCN(C(=O)OCc1cccnc1)C2 [Example 39, 3-Cyano-2-(3-pyridin-3-yl-propanoylamino)-4,7-dihydro-5H-thieno[2,3-c]pyridine-6-carboxylic acid pyridin-3-ylmethyl ester]	> 100000	300 to 2000
N#Cc1c(NC(=O)CCc2cccnc2)sc2c1CCN(C(=O)OCc1ccncc1)C2 [Example 40, 3-Cyano-2-(3-pyridin-3-yl-propanoylamino)-4,7-dihydro-5H-thieno[2,3-c]pyridine-6-carboxylic acid pyridin-4-ylmethyl ester]	≥ 40000	300 to 2000
COCCOC(=O)N1CCc2c(sc(NC(=O)CCc3ccco3)c2C#N)C1 [Example 41, 3-Cyano-2-(3-furan-2-yl-propanoylamino)-4,7-dihydro-5H-thieno[2,3-c]pyridine-6-carboxylic acid 2-methoxy-ethyl ester]	> 100000	≤ 300
N#Cc1c(NC(=O)CCc2ccco2)sc2c1CCN(C(=O)OCc1ccccn1)C2 [Example 42, 3-Cyano-2-(3-furan-2-yl-propanoylamino)-4,7-dihydro-5H-thieno[2,3-c]pyridine-6-carboxylic acid pyridin-2-ylmethyl ester]	> 100000	≤ 300
N#Cc1c(NC(=O)CCc2ccco2)sc2c1CCN(C(=O)OCc1cccnc1)C2 [Example 43, 3-Cyano-2-(3-furan-2-yl-propanoylamino)-4,7-dihydro-5H-thieno[2,3-c]pyridine-6-carboxylic acid pyridin-3-ylmethyl ester]	> 100000	≤ 300
N#Cc1c(NC(=O)CCc2ccco2)sc2c1CCN(C(=O)OCc1ccncc1)C2 [Example 44, 3-Cyano-2-(3-furan-2-yl-propanoylamino)-4,7-dihydro-5H-thieno[2,3-c]pyridine-6-carboxylic acid pyridin-4-ylmethyl ester]	> 100000	≤ 300

Now from value to compound, other results behind:

IC50 [2] [nM]	Structure (SMILES)	IC50 [1] [nM]
> 100000	CC(C)(C)OC(=O)N1CCc2c(sc(NC(=O)CCc3ccccc3)c2C#N)C1 [Example 22, 3-Cyano-2-(3-phenyl-propanoylamino)-4,7-dihydro-5H-thieno[2,3-c]pyridine-6-carboxylic acid tert-butyl ester]	≤ 300
> 100000	CCOC(=O)N1CCc2c(sc(NC(=O)CCc3ccccc3Br)c2C#N)C1 [Example 23, 2-[3-(2-Bromo-phenyl)-propanoylamino]-3-cyano-4,7-dihydro-5H-thieno[2,3-c]pyridine-6-carboxylic acid ethyl ester]	≤ 300
> 100000	COCCOC(=O)N1CCc2c(sc(NC(=O)CCc3ccccc3)c2C#N)C1 [Example 24, 3-Cyano-2-(3-phenyl-propanoylamino)-4,7-dihydro-5H-thieno[2,3-c]pyridine-6-carboxylic acid 2-methoxy-ethyl ester]	≤ 300
> 100000	N#Cc1c(NC(=O)CCc2ccccc2)sc2c1CCN(C(=O)OCCc1ccccn1)C2 [Example 26, 3-Cyano-2-(3-phenyl-propanoylamino)-4,7-dihydro-5H-thieno[2,3-c]pyridine-6-carboxylic acid 2-pyridin-2-yl-ethyl ester]	≤ 300
> 100000	N#Cc1c(NC(=O)CCc2ccccc2)sc2c1CCN(C(=O)OCc1ccccn1)C2 [Example 27, 3-Cyano-2-(3-phenyl-propanoylamino)-4,7-dihydro-5H-thieno[2,3-c]pyridine-6-carboxylic acid pyridin-2-ylmethyl ester]	≤ 300
> 100000	N#Cc1c(NC(=O)CCc2ccccc2)sc2c1CCN(C(=O)OCc1cccnc1)C2 [Example 28, 3-Cyano-2-(3-phenyl-propanoylamino)-4,7-dihydro-5H-thieno[2,3-c]pyridine-6-carboxylic acid pyridin-3-ylmethyl ester]	≤ 300
> 100000	N#Cc1c(NC(=O)CCc2ccccc2)sc2c1CCN(C(=O)OCc1ccncc1)C2 [Example 29, 3-Cyano-2-(3-phenyl-propanoylamino)-4,7-dihydro-5H-thieno[2,3-c]pyridine-6-carboxylic acid pyridin-4-ylmethyl ester]	≤ 300
> 100000	CC1(C)OCC(COC(=O)N2CCc3c(sc(NC(=O)CCc4ccccc4)c3C#N)C2)O1 (stereo not drawn) [Example 30, 3-Cyano-2-(3-phenyl-propanoylamino)-4,7-dihydro-5H-thieno[2,3-c]pyridine-6-carboxylic acid 2,2-dimethyl-[1,3]dioxolan-4-ylmethyl ester]	≤ 300
> 100000	N#Cc1c(NC(=O)CCc2ccccc2)sc2c1CCN(C(=O)OCC(O)CO)C2 (stereo not drawn) [Example 31, 3-Cyano-2-(3-phenyl-propanoylamino)-4,7-dihydro-5H-thieno[2,3-c]pyridine-6-carboxylic acid 2,3-dihydroxy-propyl ester]	≤ 300

— US7714135B2, “Tetrahydropyridothiophenes for the treatment of proliferative diseases such as cancer” (4SC AG, priority 2005, dated 2010)
